Test results: patent US12673933B2, “Aminopyrazine compounds as HPK1 inhibitor and the use thereof” (BEIGENE, LTD., priority 2019, dated 2026)

The compounds below were run against T1, HPK1 kinase (aa1-346, Life Technologies) (Homo sapiens, UniProt Q92918) (assay: HPK Kinase Activity Assay at 1 mM ATP (TR-FRET)). Conditions: HPK1 kinase 40 nM, 0.5 μM STK1 substrate, read-out: Enzymatic activity IC50.
T1 construct: HPK1 kinase (aa1-346, Life Technologies); purchased Life Technologies
T1 sequence (Q92918 1-346): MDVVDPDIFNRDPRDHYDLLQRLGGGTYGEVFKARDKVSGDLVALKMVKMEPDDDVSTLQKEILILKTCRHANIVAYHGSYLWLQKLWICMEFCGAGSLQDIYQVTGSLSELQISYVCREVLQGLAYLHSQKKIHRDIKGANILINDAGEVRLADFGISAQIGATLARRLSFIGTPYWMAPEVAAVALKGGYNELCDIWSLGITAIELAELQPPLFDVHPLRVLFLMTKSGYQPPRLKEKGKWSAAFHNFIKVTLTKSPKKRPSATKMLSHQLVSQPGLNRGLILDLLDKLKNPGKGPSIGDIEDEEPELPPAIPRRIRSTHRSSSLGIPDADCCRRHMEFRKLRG
Format: biochemical
Procedure, shortened: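 HPK1 (aa1-346, 40 nM) was preincubated 60 min at room temperature with compound (0–10 μM) in pH 7.0 HEPES/MgCl2 buffer. Reaction ran 120 min at room temperature with 1 mM ATP and 0.5 μM STK1 substrate. Phosphorylation was read as the TR-FRET 665/620 nm ratio, with IC50 from a four-parameter logistic fit.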

Row | Compound | IC50 [µM]
1 | Cc1cc(-c2cnc(N)c(-n3cc(C(=O)N(C)CC4CCOC4)cn3)n2)cc2c1CCN(C)C2 (stereo not shown) [Example 304, 1-(3-amino-6-(2,5-dimethyl-1,2,3,4-tetrahydroisoquinolin-7-yl)pyrazin-2-yl)-N-methyl-N-((tetrahydrofuran-3-yl)methyl)-1H-pyrazole-4-carboxamide] | 0.01
2 | Cc1cc(-c2cnc(N)c(-n3cc(C(=O)NC4CCOC4)cn3)n2)cc2c1CCN(C)C2 (stereo not shown) [Example 305, 1-(3-amino-6-(2,5-dimethyl-1,2,3,4-tetrahydroisoquinolin-7-yl)pyrazin-2-yl)-N-(tetrahydrofuran-3-yl)-1H-pyrazole-4-carboxamide] | 0.0089
3 | Cc1cc(-c2cnc(N)c(-n3cc(C(=O)N(C)C4CCOC4)cn3)n2)cc2c1CCN(C)C2 (stereo not shown) [Example 306, 1-(3-amino-6-(2,5-dimethyl-1,2,3,4-tetrahydroisoquinolin-7-yl)pyrazin-2-yl)-N-methyl-N-(tetrahydrofuran-3-yl)-1H-pyrazole-4-carboxamide] | 0.089
4 | Cc1cc(-c2cnc(N)c(Oc3cnn(C4CCN(C)CC4)c3)n2)cc2c1CCN(C)C2 [Example 307, 5-(2,5-dimethyl-1,2,3,4-tetrahydroisoquinolin-7-yl)-3-(1-(1-methylpiperidin-4-yl)-1H-pyrazol-4-yloxy)pyrazin-2-amine] | 0.0059
5 | Cc1cc(-c2cnc(N)c(Oc3cnn(CCC#N)c3)n2)cc2c1CN(C)CC2 [Example 308, 3-(4-((3-amino-6-(2,8-dimethyl-1,2,3,4-tetrahydroisoquinolin-6-yl)pyrazin-2-yl)oxy)-1H-pyrazol-1-yl)propanenitrile] | 0.048
6 | Cc1cc(-c2cnc(N)c(Oc3cnn(C4CCOCC4)c3)n2)cc2c1CCN(C)C2 [Example 309, 5-(2,5-dimethyl-1,2,3,4-tetrahydroisoquinolin-7-yl)-3-(1-(tetrahydro-2H-pyran-4-yl)-1H-pyrazol-4-yloxy)pyrazin-2-amine] | 0.022
7 | CCN1CC(n2cc(Oc3nc(-c4cc(C)c5c(c4)CN(C)CC5)cnc3N)cn2)C1 [Example 310, 5-(2,5-dimethyl-1,2,3,4-tetrahydroisoquinolin-7-yl)-3-(1-(1-ethylazetidin-3-yl)-1H-pyrazol-4-yloxy)pyrazin-2-amine] | 0.02
8 | Cc1cc(-c2cnc(N)c(Oc3cnn([C@H]4CC[C@@](C)(O)CC4)c3)n2)cc2c1CCN(C)C2 [Example 311, (1s,4s)-4-(4-(3-amino-6-(2,5-dimethyl-1,2,3,4-tetrahydroisoquinolin-7-yl)pyrazin-2-yloxy)-1H-pyrazol-1-yl)-1-methylcyclohexanol] | 0.0077
9 | Cc1cc(-c2cnc(N)c(Oc3cnn([C@H]4CC[C@@](C)(O)CC4)c3)n2)cc2c1CN(C)CC2 [Example 312, (1s,4s)-4-(4-(3-amino-6-(2,8-dimethyl-1,2,3,4-tetrahydroisoquinolin-6-yl)pyrazin-2-yloxy)-1H-pyrazol-1-yl)-1-methylcyclohexanol] | 0.063
10 | Cc1cc(-c2cnc(N)c(Oc3cnn(C(C)(C)CC#N)c3)n2)cc2c1CCN(C)C2 [Example 313, 3-(4-(3-amino-6-(2,5-dimethyl-1,2,3,4-tetrahydroisoquinolin-7-yl)pyrazin-2-yloxy)-1H-pyrazol-1-yl)-3-methylbutanenitrile] | 0.0083
11 | Cc1cc(-c2cnc(N)c(Oc3cnn(CC4(F)CCOCC4)c3)n2)cc2c1CCN(C)C2 [Example 314, 5-(2,5-dimethyl-1,2,3,4-tetrahydroisoquinolin-7-yl)-3-(1-((4-fluoro-tetrahydro-2H-pyran-4-yl)methyl)-1H-pyrazol-4-yloxy)pyrazin-2-amine] | 0.0045
12 | Cc1cc(-c2cnc(N)c(Oc3cnn([C@H]4C[C@H](C#N)C4)c3)n2)cc2c1CCN(C)C2 [Example 315, (1r,3r)-3-(4-((3-amino-6-(2,5-dimethyl-1,2,3,4-tetrahydroisoquinolin-7-yl)pyrazin-2-yl)oxy)-1H-pyrazol-1-yl)cyclobutane-1-carbonitrile] | 0.033
13 | Cc1cc(-c2cnc(N)c(Oc3cnn([C@H]4C[C@H](C#N)C4)c3)n2)cc2c1CN(C)CC2 [Example 316, (1r,3r)-3-(4-((3-amino-6-(2,8-dimethyl-1,2,3,4-tetrahydroisoquinolin-6-yl)pyrazin-2-yl)oxy)-1H-pyrazol-1-yl)cyclobutane-1-carbonitrile] | 0.085
14 | Cc1cc(-c2cnc(N)c(Oc3cnn(C(C)(C)C#N)c3)n2)cc2c1CCN(C)C2 [Example 317, 2-(4-(3-amino-6-(2,5-dimethyl-1,2,3,4-tetrahydroisoquinolin-7-yl)pyrazin-2-yloxy)-1H-pyrazol-1-yl)-2-methylpropanenitrile] | 0.02
15 | Cc1cc(-c2cnc(N)c(Oc3cnn(CC(C)(C)C#N)c3)n2)cc2c1CN(C)CC2 [Example 318, 3-(4-(3-amino-6-(2,8-dimethyl-1,2,3,4-tetrahydroisoquinolin-6-yl)pyrazin-2-yloxy)-1H-pyrazol-1-yl)-2,2-dimethylpropanenitrile] | 0.06
16 | CC#Cc1nn(-c2nc(-c3cc(C)c4c(c3)CN(C)CC4)cnc2N)cc1C(=O)N(C)C [Example 319, 1-(3-amino-6-(2,5-dimethyl-1,2,3,4-tetrahydroisoquinolin-7-yl)pyrazin-2-yl)-N,N-dimethyl-3-(prop-1-ynyl)-1H-pyrazole-4-carboxamide] | 0.018
